Tests used:
Format in all cases: in vivo
[1] = system: Permethrin Resistant C. quinquefasciatus; test: Wind tunnel bioassay, adult mosquitoes, Example 2 (September 2021)
Procedure: (§1) In this bioassay, a wind tunnel bioassay was performed in the United States of America in September 2021. Culex quinquefasciatus that were known to be resistant and susceptible to permethrin were used in the studies. The following solutions were applied to adult C. quinquefasciatus mosquitoes: 1) 0.5% moxidectin; 2) 0.5% pyrethrum; and 3) a mixture of 0.5% pyrethrum and 0.5% moxidectin.
(§2) Percent mortality was recorded at 15 minutes (“Min”), 1 hour (“Hr”), 24 hours and 48 hours. OCE:ECE ratios were calculated as in Example 1, above.

[2] = system: Permethrin Susceptible C. quinquefasciatus; test: as above
Procedure: as §1, §2

[3] = system: Permethrin Resistant C. quinquefasciatus; test: Wind tunnel bioassay, adult mosquitoes, Example 1 (May 2021)
Procedure: (§3) In this bioassay, a wind tunnel bioassay was performed in the United States of America in May 2021. Culex quinquefasciatus that were known to be resistant and susceptible to permethrin were used in the studies. The following solutions were applied to adult C. quinquefasciatus mosquitoes: 1) 1.5% moxidectin; 2) 5% permethrin; 3) 2.5% pyrethrum; 4) a mixture of 5% permethrin and 1.5% moxidectin; and 5) a mixture of 2.5% pyrethrum and 1.5% moxidectin.
(§4) To determine if the mixtures provided unexpected results, the observed combined efficacy (“OCE”) was divided by the expected combined efficacy (“ECE”) wherein the expected ECE is calculated by the Abbott method: […]
(§5) wherein ECE is the expected combined efficacy and in which A and B are the percent control given by the single active ingredients. If the ratio between the OCE of the mixture and the ECE of the mixture is greater than 1, then greater than expected interactions are present in the mixture. (Gisi, Synergistic Interaction of Fungicides in Mixtures, The American Phytopathological Society, 86:11, 1273-1279, 1996). Percent mortality was recorded at 15 minutes (“Min”), 1 hour (“Hr”), 24 hours and 48 hours.

[4] = system: Permethrin Susceptible C. quinquefasciatus; test: as above
Procedure: as §3, §4, §5

Row | SMILES | % Mortality ([1]; 1 Hr) [%] | % Mortality ([1]; 15 Min) [%] | % Mortality ([1]; 24 Hr) [%] | % Mortality ([1]; 48 Hr) [%] | % Mortality ([2]; 1 Hr) [%] | % Mortality ([2]; 15 Min) [%] | % Mortality ([2]; 24 Hr) [%] | % Mortality ([2]; 48 Hr) [%] | % Mortality ([3]; 1 Hr) [%] | % Mortality ([3]; 15 Min) [%] | % Mortality ([3]; 24 Hr) [%] | % Mortality ([3]; 48 Hr) [%] | % Mortality ([4]; 1 Hr) [%] | % Mortality ([4]; 15 Min) [%] | % Mortality ([4]; 24 Hr) [%] | % Mortality ([4]; 48 Hr) [%] | control ([4]; span over 15 minutes to 48 hours) [%]
1 | CO/N=C1\C[C@]2(C[C@@H]3C[C@@H](C/C=C(\C)C[C@@H](C)/C=C/C=C4\CO[C@@H]5[C@H](O)C(C)=C[C@@H](C(=O)O3)[C@]45O)O2)O[C@H](/C(C)=C/C(C)C)[C@H]1C [0.5% Moxidectin, moxidectin] | 0.00 | 0.00 | 11.25 | 8.75 | 26.25 | 1.25 | 95.00 | 95.00 |  |  |  |  |  |  |  |  | 
2 | CO/N=C1\C[C@]2(C[C@@H]3C[C@@H](C/C=C(\C)C[C@@H](C)/C=C/C=C4\CO[C@@H]5[C@H](O)C(C)=C[C@@H](C(=O)O3)[C@]45O)O2)O[C@H](/C(C)=C/C(C)C)[C@H]1C [1.5% Moxidectin, moxidectin] |  |  |  |  |  |  |  |  | 0 | 15 | 68.75 | 50 | 67.5 | 53.75 | 92.5 | 92.5 | 
3 | CC1(C)C(C=C(Cl)Cl)C1C(=O)OCc1cccc(Oc2ccccc2)c1 (stereo not shown) [5% Permethrin, permethrin] |  |  |  |  |  |  |  |  | 81.25 | 35 | 97.5 | 96.25 | 100 | 100 | 100 | 100 | ~100

Reference: US20230110595A1, “MIXTURE OF PYRETHROIDS AND MILBEMYCINS AND USES THEREOF” (Valent BioSciences LLC, priority 2021, published 2023)
